For one test, the system named is rabbit vein graft. As to the kind of experiment: Rabbit vein graft failure model (vein autograft implanted into carotid artery). The settings on record: graft treated for 30 min, Imatinib 10% w/v; 4 weeks. Type of test: in vivo. From the text: A rabbit vein autograft is implanted into a carotid artery to prepare a rabbit vein graft failure model. In this model, a lumen stenosis due to neointimal formation develops after 4 weeks.

The next test has as its system Rat aortic SMCs. The settings on record: for inhibition of PDGF-BB induced SMC migration, dose dependence: free Imatinib 0.1, 1, 10 μM, PDGF-BB 10 ng/ml.
In test [1] the test system is Human coronary artery arterial vascular SMCs. To be noted: for inhibition of PDGF-BB induced SMC proliferation, dose dependence: free Imatinib 0.1, 1, 10 μM, PDGF-BB 10 ng/ml.
Protocol: Human coronary artery arterial vascular SMCs (Cambrex Bio Science Walkersville, Inc) are seeded on 48-well culture plates (FALCON 354506 BIOCOAT CELL WARE Human Fibronectin) at 5×10^3 cells per well (n=6 per group) in SM-BM with 10% FBS. After 24 hours, the cells are starved for 72 hours in serum free medium to obtain quiescent non-dividing cells. After starvation, recombinant PDGF-BB (Sigma) 10 ng/m^1 is added. […] These wells are washed with PBS before PDGF stimulation. Four days later, the cells are fixed with methanol and stained with Diff-Quick staining solution (Baxter). A single observer who is blinded the experimental protocol counted the number of cells/plate under a microscope for quantification of SMC proliferation.
Setting [2] is: listed as non-encapsulated Imatinib.
Where [3] appears, read: free Imatinib at 0.1 μM, listed as free Imatinib.

Entries after “also recorded” stand apart in the source; their conditions may differ. Read-outs that look alike come from different tables or passages of the source.

Protocol for Rat aortic SMCs: Migration of rat aortic SMCs is assessed with a Boyden chamber type cell migration assay kit housing a collagen-precoated polycarbonate membrane with 8.0-μm pores (Chemicon), as we previously described (Ono H, Ichiki T, et al. Arterioscler Thromb Vasc Biol. 2004; 24:1634-9.). SMCs are grown to semiconfluent and then made quiescent in serum free medium for 24 hours before migration. The cells (1×10^5 cells/ml) are added to the upper chamber of the membrane (n=6 per group) and allowed to migrate through the pores. […] These cells are washed with PBS before PDGF stimulation. SMCs are then exposed. to PDGF-BB (10 ng/ml) in the lower chamber for 4 hours, after which non-migrated cells are removed from the upper chamber using a cotton swab. The SMCs that migrate to the lower side of the filter are fixed in methanol, stained with Diff-Quick staining solution (Baxter), and counted under a microscope for quantification of SMC migration.

As to `Cc1ccc(NC(=O)c2ccc(CN3CCN(C)CC3)cc2)cc1Nc1nccc(-c2cccnc2)n1` [Imatinib, N-{5-[4-(4-methylpiperazino-methyl)-benzoylamido]-2-methylphenyl}-4-(3-pyridyl)-2-pydmidine-amine], the “neointimal formation of vein graft” value in the test on rabbit vein graft was “No suppression”. For the same molecule, the “inhibition of PDGF-BB induced SMC migration, dose dependence” value in the test on Rat aortic SMCs was “dose-dependent inhibitory effect”; in the test with Rat aortic SMCs (listed as free Imatinib) it was “dose-dependent manner”; in the test on Rat aortic SMCs (setting [2]), “dose-dependent manner”. Besides, the figures for the “effect on PDGF-induced SMC migration” value in the test on Rat aortic SMCs (free Imatinib at 0.1 μM), in the test with Rat aortic SMCs (setting [3]) and in the test with Rat aortic SMCs (free Imatinib at 10 μM) were “no effect”, “no effects” and “normalizes”, respectively. In addition, the “inhibition of PDGF-BB induced SMC proliferation, dose dependence” value in test [1] is reported as “dose-dependently reduces”; in test [1] (listed as free Imatinib), “dose-dependent manner”; in test [1] (setting [2]), “dose-dependent manner”. Moreover, the “effect on PDGF-induced SMC proliferation” value was “no effect” in test [1] (free Imatinib at 0.1 μM), “no effects” in test [1] (setting [3]) and “normalizes; also recorded: completely abolishes” in test [1] (free Imatinib at 10 μM).

These data come from patent US20090136579A1, “Nanoparticles Comprising a PDGF Receptor Tyrosine Kinase Inhibitor” (priority 2006, published 2009).
